{
  "source": "patent US6444469B1",
  "about": "“Methods for altering the rate of plant development and plants obtained therefrom” (Yale University, priority 1996, dated 2002)",
  "origin": "cited, not measured here",
  "test_system": "late-flowering strains and mutants of Arabidopsis",
  "conditions": "treatment of seeds; some late-flowering strains and mutants",
  "data": [
    {"smiles": "Nc1ncn([C@@H]2O[C@H](CO)[C@@H](O)[C@H]2O)c(=O)n1", "note": "[Line 5-AzaC, 5-azacytidine]", "values": [
      {"measurement": "Effect on flowering", "result": "early flowering"}
    ]}
  ]
}
